From PubChem BioAssay AID1963451 (Molecular Pharmacology Branch, DTP, NCI, 2024)

Tested on: 521955-158-R6-J3-PDC complex spheroid growth, % test/control
Assay: Anticancer human tumor 521955-158-R6-J3-PDC patient-derived pancreatic carcinoma cell line growth inhibition [Asc]
Conditions: for IC50: curve of first compound; for viability, T/C: stronger effect = lower value
Description: Multicellular complex tumor spheroid response to apoptosis pathway targeting inhibitors Alrizomadlin, Pelcitoclax, and Dasminapant in combination with a variety of drugs and investigational agents in selected tumor cell lines
The MDM2 inhibitor alrizomadlin, the Bcl-2/Bcl-xL inhibitor pelcitoclax, and the IAPs inhibitor dasminapant were evaluated both individually and in combination with standard of care and investigational anticancer small molecules within a complex spheroid model of solid tumors. . Complex spheroids include a stromal component modeled by human endothelial cells (HUVEC) and fibroblasts modeled by human mesenchymal stem cells (MSCs). The concentration ranges selected for each drug and investigational agent were based upon clinically achievable concentrations if the clinical Cmax of the agent was known.
Compounds. The drugs and investigational agents: alrizomadlin (APG-115; NSC831270), pelcitoclax (APG-1252; NSC835773), dasminapant (APG-1387;NSC834197), TAK-243 (NSC785004), copanlisib (NSC809693), olaparib (NSC753686), talazoparib (NSC767125), cobimetinib (NSC 768068), eltanexor (KPT-8602, NSC 794443), abemaciclib (NSC 768073), sotorasib (NSC818433), adagrasib (NSC 831453), MRTX-1133 (NSC 836407), Iadademestat (ORY1001, NSC 806812), and RMC-4630 (NSC839698), were obtained from the NCI Developmental Therapeutics Program Chemical Repository. The FDA-approved anticancer drug set is available from the Developmental Therapeutics Program at https://dtp.cancer.gov/organization/dscb/obtaining/available plates.htm. […] The stock solutions were prepared in dimethyl sulfoxide (DMSO, Sigma-Aldrich, St. Louis, MO, cat. D2650) at 800-fold the tested concentration and stored at -70 degrees C prior to their use. All drugs and investigational agents were tested over a range starting from a high concentration at or near the clinical Cmax and decreasing in half-log increments. If the clinical Cmax for an agent had not been determined, the highest concentration tested was 10 microM.
The patient-derived cancer (PDC) cell lines include five colon adenocarcinomas: 186277-243-T-J2-PDC, 616215-338-R-J1-PDC, 439559-082-T-J2-PDC, 463943-066-T-J2-PDC, and 519858-162-T-J1-PDC; three pancreatic carcinomas: 323965-272-R-J2-PDC, 521955-158-R6-J3-PDC, and 521955-158-R2-J5-PDC; two uterine sarcomas: 327498-152-R-J2-PDC and 993429-296-R-J1-PDC; two rhabdomyosarcomas: 755483-174-R-J1-PDC and 772245-204-R-J1-PDC; two soft tissue sarcomas: 126254-015-R-J1-PDC and 494315-158-R-J1-PDC; two malignant fibrous histiocytomas: 317291-083-R-J1-PDC and 596521-263-R-J1-PDC; two breast carcinomas: 171881-019-R-J1-PDC and 885512-296-R-J2-PDC; and one ovarian carcinoma: 6556581-035-R-J-PDC were obtained from the NCI PDMR, (https://pdmr.cancer.gov). The established cell lines HSSY-2 synovial sarcoma (RRID:CVCL 8719), SYO-1 synovial sarcoma (RRID:CVCL_7146), MPNST malignant peripheral neural sheath tumor were obtained from the Sloan Kettering Institute. The following established cell lines were purchased from the American Type Culture Collection (ATCC, Manassas, VA), Sor the received from the NCI repository:, PANC-1 pancreatic carcinoma (CRL-1469, RRID:CVCL_0480), OVCAR-5 ovarian carcinoma (RRID:CVCL_1628), OVCAR-8 ovarian carcinoma (RRID:CVCL_1629), , MCF-7 breast carcinoma (CRL-12584, RRID:CVCL_0031), MDA-MB-231 breast carcinoma (CRL-12532, RRID:CVCL_0062), NCI-H1876 small cell lung carcinoma (CRL-5902, RRID:CVCL_1503), NCI-H510A small cell lung carcinoma (HTB-184, RRID:CVCL_1565), NCI-H1417 (CRL-5869, RRID:CVCL_1469), and NCI-H196 small cell lung carcinoma (CRL-5823, RRID:CVCL_1509). Dr. Peter Houghton (Greehey Children's Cancer Research Institute, University of Texas Health Science Center, San Antonio, TX) provided Rh-18 rhabdomyosarcoma (RRID:CVCL_1659). Pooled donor human umbilical vein endothelial cells (HUVEC, Lonza, cat. CC-2519) and human mesenchymal stem cells (hMSC, Lonza, cat. PT-2501) were purchased from Lonza (Walkersville, MD).
Cell Culture. […]

[1] = second compound 0.00949 µM, first compound 0.0316 µM
[2] = second compound 0.00949 µM, first compound 0.1 µM
[3] = second compound 0.03 µM, first compound 0.0316 µM
[4] = second compound 0.03 µM, first compound 0.1 µM
[5] = second compound 0.0949 µM, first compound 0.0316 µM
[6] = second compound 0.0949 µM, first compound 0.1 µM
[7] = second compound 0.3 µM, first compound 0.0316 µM
[8] = second compound 0.3 µM, first compound 0.1 µM
[9] = second compound 0.949 µM, first compound 0.0316 µM
[10] = second compound 0.949 µM, first compound 0.1 µM
[11] = second compound 3 µM, first compound 0.0316 µM
[12] = second compound 3 µM, first compound 0.1 µM
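Further: spheroids exposed to compounds for 7 days.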
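Wherever viability, T/C is given: 100% = DMSO vehicle control wells.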

Work on `Cn1ncnc1[C@H]1c2n[nH]c(=O)c3cc(F)cc(c23)N[C@@H]1c1ccc(F)cc1` + CCN1C(C(=O)NC23CCC(C(=O)O)(CC2)CC3)C(c2cccc(Cl)c2F)C2(C(=O)Nc3cc(Cl)ccc32)C12CCCCC2 yielded an IC50 (second compound 0.00949 µM) of over 0.1 µM, an IC50 (second compound 0.03 µM) of over 0.1 µM and an IC50 (second compound 0.0949 µM) of over 0.1 µM. The IC50 (second compound 0.3 µM) was over 0.1 µM, the IC50 (second compound 0.949 µM) was over 0.1 µM and the IC50 (second compound 3 µM) was over 0.1 µM. The viability, T/C (second compound 0.00949 µM, first compound 0.000316 µM) was 114%, the viability, T/C (second compound 0.00949 µM, first compound 0.001 µM) was 102% and the viability, T/C (second compound 0.00949 µM, first compound 0.00316 µM) was 98.8%. For the same compound, the viability, T/C (second compound 0.00949 µM, first compound 0.01 µM) was 91.7%, the viability, T/C [1] was 78.9% and the viability, T/C [2] was 91.2%. For the same compound, the viability, T/C (second compound 0.03 µM, first compound 0.000316 µM) was 100%, the viability, T/C (second compound 0.03 µM, first compound 0.001 µM) was 94.1% and the viability, T/C (second compound 0.03 µM, first compound 0.00316 µM) was 100%. It also gave a viability, T/C (second compound 0.03 µM, first compound 0.01 µM) of 99.5%, a viability, T/C [3] of 97.5% and a viability, T/C [4] of 94.6%. For the same compound, the viability, T/C (second compound 0.0949 µM, first compound 0.000316 µM) was 95.7%, the viability, T/C (second compound 0.0949 µM, first compound 0.001 µM) was 94.8% and the viability, T/C (second compound 0.0949 µM, first compound 0.00316 µM) was 101%. For the same compound, the viability, T/C (second compound 0.0949 µM, first compound 0.01 µM) was 102%, the viability, T/C [5] was 94.3% and the viability, T/C [6] was 98.9%. It also gave a viability, T/C (second compound 0.3 µM, first compound 0.000316 µM) of 97.2%, a viability, T/C (second compound 0.3 µM, first compound 0.001 µM) of 97.7% and a viability, T/C (second compound 0.3 µM, first compound 0.00316 µM) of 99.4%. For the same compound, the viability, T/C (second compound 0.3 µM, first compound 0.01 µM) was 80.5%, the viability, T/C [7] was 98.3% and the viability, T/C [8] was 102%. It also gave a viability, T/C (second compound 0.949 µM, first compound 0.000316 µM) of 104%, a viability, T/C (second compound 0.949 µM, first compound 0.001 µM) of 100% and a viability, T/C (second compound 0.949 µM, first compound 0.00316 µM) of 114%. The viability, T/C (second compound 0.949 µM, first compound 0.01 µM) was 87.5%, the viability, T/C [9] was 96.3% and the viability, T/C [10] was 99.8%. The viability, T/C (second compound 3 µM, first compound 0.000316 µM) was 100%, the viability, T/C (second compound 3 µM, first compound 0.001 µM) was 90.4% and the viability, T/C (second compound 3 µM, first compound 0.00316 µM) was 108%. The viability, T/C (second compound 3 µM, first compound 0.01 µM) was 82%, the viability, T/C [11] was 98.6% and the viability, T/C [12] was 99%.

`O=C(c1cc(Cc2n[nH]c(=O)c3ccccc23)ccc1F)N1CCN(C(=O)C2CC2)CC1` + CCN1C(C(=O)NC23CCC(C(=O)O)(CC2)CC3)C(c2cccc(Cl)c2F)C2(C(=O)Nc3cc(Cl)ccc32)C12CCCCC2 gave an IC50 (second compound 0.00949 µM) of over 10 µM, an IC50 (second compound 0.03 µM) of over 10 µM and an IC50 (second compound 0.0949 µM) of over 10 µM. It also gave an IC50 (second compound 0.3 µM) of over 10 µM, an IC50 (second compound 0.949 µM) of over 10 µM and an IC50 (second compound 3 µM) of over 10 µM. It also gave a viability, T/C [1] of 109%, a viability, T/C [2] of 98.4% and a viability, T/C (second compound 0.00949 µM, first compound 0.316 µM) of 92.4%. For the same compound, the viability, T/C (second compound 0.00949 µM, first compound 1 µM) was 83.7%, the viability, T/C (second compound 0.00949 µM, first compound 3.16 µM) was 83.4% and the viability, T/C (second compound 0.00949 µM, first compound 10 µM) was 89.7%. The viability, T/C [3] was 127%, the viability, T/C [4] was 98.7% and the viability, T/C (second compound 0.03 µM, first compound 0.316 µM) was 94.2%. The viability, T/C (second compound 0.03 µM, first compound 1 µM) was 108%, the viability, T/C (second compound 0.03 µM, first compound 3.16 µM) was 82% and the viability, T/C (second compound 0.03 µM, first compound 10 µM) was 88.8%. It also gave a viability, T/C [5] of 106%, a viability, T/C [6] of 98.6% and a viability, T/C (second compound 0.0949 µM, first compound 0.316 µM) of 88.6%. It also gave a viability, T/C (second compound 0.0949 µM, first compound 1 µM) of 101%, a viability, T/C (second compound 0.0949 µM, first compound 3.16 µM) of 96.4% and a viability, T/C (second compound 0.0949 µM, first compound 10 µM) of 89.8%. For the same compound, the viability, T/C [7] was 113%, the viability, T/C [8] was 110% and the viability, T/C (second compound 0.3 µM, first compound 0.316 µM) was 135%. It also gave a viability, T/C (second compound 0.3 µM, first compound 1 µM) of 90.6%, a viability, T/C (second compound 0.3 µM, first compound 3.16 µM) of 89.3% and a viability, T/C (second compound 0.3 µM, first compound 10 µM) of 104%. The viability, T/C [9] was 113%, the viability, T/C [10] was 114% and the viability, T/C (second compound 0.949 µM, first compound 0.316 µM) was 104%. For the same compound, the viability, T/C (second compound 0.949 µM, first compound 1 µM) was 92.1%, the viability, T/C (second compound 0.949 µM, first compound 3.16 µM) was 89.2% and the viability, T/C (second compound 0.949 µM, first compound 10 µM) was 89%. It also gave a viability, T/C [11] of 90.8%, a viability, T/C [12] of 100% and a viability, T/C (second compound 3 µM, first compound 0.316 µM) of 96.5%. It also gave a viability, T/C (second compound 3 µM, first compound 1 µM) of 94.4%, a viability, T/C (second compound 3 µM, first compound 3.16 µM) of 104% and a viability, T/C (second compound 3 µM, first compound 10 µM) of 101%.
